In PubChem BioAssay AID1918998 (Molecular Pharmacology Branch, DTP, NCI, 2023):

Test system: 521955-158-R2-J5-PDC complex spheroid growth
Assay: Anticancer human tumor 521955-158-R2-J5-PDC patient-derived pancreatic carcinoma cell line growth inhibition [AhR]
Details: for IC50: curve of first compound; for viability, T/C: stronger effect = lower value
Summary of the method: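 Complex tumor spheroids co-cultured with HUVEC and human MSC stroma; AhR antagonists tested in combination with standard-of-care and investigational agents. Top concentration at or near clinical Cmax (else 10 microM), half-log dilutions; growth expressed as percent test/control.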

[1] = second compound 0.1 µM, first compound 0.0316 µM
[2] = second compound 0.1 µM, first compound 0.1 µM
[3] = second compound 0.1 µM, first compound 0.316 µM
[4] = second compound 0.1 µM, first compound 1 µM
[5] = second compound 0.1 µM, first compound 3.16 µM
[6] = second compound 0.1 µM, first compound 10 µM
[7] = second compound 0.316 µM, first compound 0.0316 µM
[8] = second compound 0.316 µM, first compound 0.1 µM
[9] = second compound 0.316 µM, first compound 0.316 µM
[10] = second compound 0.316 µM, first compound 1 µM
[11] = second compound 0.316 µM, first compound 3.16 µM
[12] = second compound 0.316 µM, first compound 10 µM
[13] = second compound 1 µM, first compound 0.0316 µM
[14] = second compound 1 µM, first compound 0.1 µM
[15] = second compound 1 µM, first compound 0.316 µM
[16] = second compound 1 µM, first compound 1 µM
[17] = second compound 1 µM, first compound 3.16 µM
[18] = second compound 1 µM, first compound 10 µM
[19] = second compound 3.16 µM, first compound 0.0316 µM
[20] = second compound 3.16 µM, first compound 0.1 µM
[21] = second compound 3.16 µM, first compound 0.316 µM
[22] = second compound 3.16 µM, first compound 1 µM
[23] = second compound 3.16 µM, first compound 3.16 µM
[24] = second compound 3.16 µM, first compound 10 µM
[25] = second compound 10 µM, first compound 0.0316 µM
[26] = second compound 10 µM, first compound 0.1 µM
[27] = second compound 10 µM, first compound 0.316 µM
[28] = second compound 10 µM, first compound 1 µM
[29] = second compound 10 µM, first compound 3.16 µM
[30] = second compound 10 µM, first compound 10 µM
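For viability, T/C in this document: spheroids mix tumor cells with HUVEC endothelium and human MSC stroma; luminescence taken as viability surrogate after a week of drug exposure.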

IC50 (second compound 0.1 µM) [µM]	IC50 (second compound 0.316 µM) [µM]	IC50 (second compound 1 µM) [µM]	IC50 (second compound 3.16 µM) [µM]	IC50 (second compound 10 µM) [µM]	SMILES	viability, T/C [1] [%]	viability, T/C [2] [%]	viability, T/C [3] [%]	viability, T/C [4] [%]	viability, T/C [5] [%]	viability, T/C [6] [%]	viability, T/C [7] [%]	viability, T/C [8] [%]	viability, T/C [9] [%]	viability, T/C [10] [%]	viability, T/C [11] [%]	viability, T/C [12] [%]	viability, T/C [13] [%]	viability, T/C [14] [%]	viability, T/C [15] [%]	also measured
5.03	5.29	5.68	6.93	7.2	Nc1ccccc1NC(=O)c1ccc(CNC(=O)OCc2cccnc2)cc1 + Cc1ccccc1N=Nc1ccc(NC(=O)c2ccnn2C)c(C)c1	121	129	130	104	64.6	29.6	95.2	137	147	109	69.8	26.4	135	154	155	viability, T/C [16]: 116%; viability, T/C [17]: 67.5%; viability, T/C [18]: 34.4%; viability, T/C [19]: 141%; viability, T/C [20]: 164%; viability, T/C [21]: 154%; viability, T/C [22]: 131%; viability, T/C [23]: 71.4%; viability, T/C [24]: 40%; viability, T/C [25]: 165%; viability, T/C [26]: 168%; viability, T/C [27]: 152%; viability, T/C [28]: 129%; viability, T/C [29]: 78.1%; viability, T/C [30]: 38.7%
> 10	6.54	> 10	2.92	3.55	O=C(C=Cc1cccc(S(=O)(=O)Nc2ccccc2)c1)NO + Cc1ccccc1N=Nc1ccc(NC(=O)c2ccnn2C)c(C)c1	95.4	104	121	96	72.6	52	102	115	128	89.2	65.5	41.5	105	136	136	viability, T/C [16]: 102%; viability, T/C [17]: 59.5%; viability, T/C [18]: 48.9%; viability, T/C [19]: 105%; viability, T/C [20]: 116%; viability, T/C [21]: 154%; viability, T/C [22]: 93.7%; viability, T/C [23]: 54.2%; viability, T/C [24]: 39.4%; viability, T/C [25]: 147%; viability, T/C [26]: 146%; viability, T/C [27]: 129%; viability, T/C [28]: 87.9%; viability, T/C [29]: 56.6%; viability, T/C [30]: 24.9%
> 10	> 10	> 10	> 10	> 10	O=C(c1cc(Cc2n[nH]c(=O)c3ccccc23)ccc1F)N1CCN(C(=O)C2CC2)CC1 + Cc1ccccc1N=Nc1ccc(NC(=O)c2ccnn2C)c(C)c1	101	83.6	98.5	104	73.6	63.1	90	85.7	101	88.6	80.8	77.8	134	107	136	viability, T/C [16]: 89.8%; viability, T/C [17]: 93%; viability, T/C [18]: 63.6%; viability, T/C [19]: 124%; viability, T/C [20]: 109%; viability, T/C [21]: 129%; viability, T/C [22]: 106%; viability, T/C [23]: 118%; viability, T/C [24]: 98%; viability, T/C [25]: 141%; viability, T/C [26]: 155%; viability, T/C [27]: 148%; viability, T/C [28]: 131%; viability, T/C [29]: 113%; viability, T/C [30]: 103%
